Consider 35 molecules from patent US20230331673A1, “COMPOSITION OF COMPOUNDS THAT MODULATE CELL METABOLISM AND METHODS OF USE” (CRESCENTA BIOSCIENCES, priority 2020, published 2023).

Molecules are shown by their SMILES.

This assay relates to differentiated 3T3-L1 mouse adipocyte cells. Nature of the assay: Adipocyte glucose consumption in differentiated 3T3-L1 mouse adipocyte cells (loss of glucose from medium, colorimetric). Format: cell-based. The following applies: compound 10 μM, 22 to 24 hours, differentiated 3T3-L1 adipocytes, compound/DMSO, read-out: Glucose consumption (fold change) Mean. The procedure: Activity of compounds on adipocyte glucose consumption was tested in differentiated 3T3-L1 mouse adipocyte cells. 3T3-L1 preadipocytes (ATCC) were routinely cultured in a growth medium composed of DMEM high-glucose (Sigma), 10% FBS (Gibco), 10 U/ml penicillin and 10 μg/ml streptomycin (P/S; Gibco). To induce adipogenic differentiation, a confluent layer of 3T3-L1 cells were incubated with the growth medium containing 2 μM rosiglitazone, 1 μM dexamethasone, 500 μM IBMX, and 1 μg/ml insulin (Sigma). Forty-eight (48) hours later (on day 2) and on days 4 and 6, medium of the cells was replaced with fresh medium containing 1 μg/ml insulin. On days 8 and 10, the medium was refreshed with regular growth medium and addition of insulin was omitted. On day 11 or 12, medium of the cells were replaced with fresh medium containing either the indicated compounds (10 μM) or the vehicle in which the compounds were dissolved (DMSO). The final concentration of DMSO was 0.1% (v/v). Growth medium containing 0.1% DMSO was incubated in culture wells containing no cells and used as control. Twenty-two to 24 hours later, medium was harvested and subjected to centrifugation at 10,000 g for 5 min. Glucose concentration in the supernatants was determined using a colorimetric assay (Glucose Assay Kit I, Eton Biosciences). Glucose consumption in compound and vehicle treated cells was measured as loss of glucose from the culture medium and represented as mean fold change (compound/DMSO) t standard deviation (SD).
Turning to `CCCCC1CCCc2c(n(Cc3ccccc3C#N)c3c(C(=O)O)cccc23)C1` (centres unmarked) [7-butyl-5-[(2-cyanophenyl)methyl]-5H,6H,7H,8H,9H,10H-cyclohepta[b]indole-4-carboxylic acid], the fold induction at 10 µM stood at 1.1.
The value for `CCCCC1CCCc2c(n(Cc3ccccc3F)c3c(C(=O)O)cccc23)C1` (centres unmarked) [7-butyl-5-[(2-fluorophenyl)methyl]-5H,6H,7H,8H,9H,10H-cyclohepta[b]indole-4-carboxylic acid] was 1.11.
The value for `CCCCC1CCCc2c(n(Cc3ccccc3C)c3c(C(=O)O)cccc23)C1` (centres unmarked) [7-butyl-5-[(2-methylphenyl)methyl]-5H,6H,7H,8H,9H,10H-cyclohepta[b]indole-4-carboxylic acid] was 1.12; that for `CCCCC1CCCc2c(n(Cc3cccc(C(N)=O)c3)c3c(C(=O)O)cccc23)C1` (centres unmarked) [7-butyl-5-[(3-carbamoylphenyl)methyl]-5H,6H,7H,8H,9H,10H-cyclohepta[b]indole-4-carboxylic acid] was 1.12.
Take `CCCCC1CCCc2c(n(Cc3cccc(C(N)=O)c3)c3c(C(=O)NCCO)cccc23)C1` (centres unmarked) [7-butyl-5-[(3-carbamoylphenyl)methyl]-N-(2-hydroxyethyl)-5H,6H,7H,8H,9H,10H-cyclohepta[b]indole-4-carboxamide]: the fold induction at 10 µM stood at 0.98.
The value for `CCCCC1CCCc2c(n(Cc3cccc(C(=O)O)c3)c3c(C(=O)O)cccc23)C1` (centres unmarked) [7-butyl-5-[(3-carboxyphenyl)methyl]-5H,6H,7H,8H,9H,10H-cyclohepta[b]indole-4-carboxylic acid] was 0.95; that for `CCCCC1CCCc2c(n(Cc3cccc(Cl)c3)c3c(C(=O)O)cccc23)C1` (centres unmarked) [7-butyl-5-[(3-chlorophenyl)methyl]-5H,6H,7H,8H,9H,10H-cyclohepta[b]indole-4-carboxylic acid] was 1.18; that for `CCCCC1CCCc2c(n(Cc3cccc(C#N)c3)c3c(C(=O)O)cccc23)C1` (centres unmarked) [7-butyl-5-[(3-cyanophenyl)methyl]-5H,6H,7H,8H,9H,10H-cyclohepta[b]indole-4-carboxylic acid] was 1.29.
The value for `CCCCC1CCCc2c(n(Cc3cccc(C#N)c3)c3c(C(=O)NCCO)cccc23)C1` (centres unmarked) [7-butyl-5-[(3-cyanophenyl)methyl]-N-(2-hydroxyethyl)-5H,6H,7H,8H,9H,10H-cyclohepta[b]indole-4-carboxamide] was 1.08; that for `CCCCC1CCCc2c(n(Cc3cccc(F)c3)c3c(C(=O)O)cccc23)C1` (centres unmarked) [7-butyl-5-[(3-fluorophenyl)methyl]-5H,6H,7H,8H,9H,10H-cyclohepta[b]indole-4-carboxylic acid] was 1.12; that for `CCCCC1CCCc2c(n(Cc3cccc(O)c3)c3c(C(=O)O)cccc23)C1` (centres unmarked) [7-butyl-5-[(3-hydroxyphenyl)methyl]-5H,6H,7H,8H,9H,10H-cyclohepta[b]indole-4-carboxylic acid] was 1.14.
The value for `CCCCC1CCCc2c(n(Cc3cccc(OC)c3)c3c(C(=O)O)cccc23)C1` (centres unmarked) [7-butyl-5-[(3-methoxyphenyl)methyl]-5H,6H,7H,8H,9H,10H-cyclohepta[b]indole-4-carboxylic acid] was 1.23; that for `CCCCC1CCCc2c(n(Cc3cccc(C)c3)c3c(C(=O)O)cccc23)C1` (centres unmarked) [7-butyl-5-[(3-methylphenyl)methyl]-5H,6H,7H,8H,9H,10H-cyclohepta[b]indole-4-carboxylic acid] was 1.32; that for `CCCCC1CCCc2c(n(Cc3ccc(C(N)=O)cc3)c3c(C(=O)O)cccc23)C1` (centres unmarked) [7-butyl-5-[(4-carbamoylphenyl)methyl]-5H,6H,7H,8H,9H,10H-cyclohepta[b]indole-4-carboxylic acid] was 1.13.
For `CCCCC1CCCc2c(n(Cc3ccc(C)cc3)c3c(C(=O)O)cccc23)C1` (centres unmarked) [7-butyl-5-[(4-methylphenyl)methyl]-5H,6H,7H,8H,9H,10H-cyclohepta[b]indole-4-carboxylic acid], the fold induction at 10 µM is 1.27.
Regarding `CCCCC1CCCc2c(n(Cc3cccnc3)c3c(C(=O)O)cccc23)C1` (centres unmarked) [7-butyl-5-[(pyridin-3-yl)methyl]-5H,6H,7H,8H,9H,10H-cyclohepta[b]indole-4-carboxylic acid], the fold induction at 10 µM was determined as 1.21.
The value for `CCCCCCC1CCCc2c(n(Cc3ccnc(OC)c3)c3c(C(=O)O)cccc23)C1` (centres unmarked) [7-hexyl-5-[(2-methoxypyridin-4-yl)methyl]-5H,6H,7H,8H,9H,10H-cyclohepta[b]indole-4-carboxylic acid] was 1.12; that for `CCCCCCC1CCCc2c(n(Cc3ccccc3C)c3c(C(=O)O)cccc23)C1` (centres unmarked) [7-hexyl-5-[(2-methylphenyl)methyl]-5H,6H,7H,8H,9H,10H-cyclohepta[b]indole-4-carboxylic acid] was 1; that for `CCCCCCC1CCCc2c(n(Cc3cccc(C)c3)c3c(C(=O)O)cccc23)C1` (centres unmarked) [7-hexyl-5-[(3-methylphenyl)methyl]-5H,6H,7H,8H,9H,10H-cyclohepta[b]indole-4-carboxylic acid] was 1.13.
Take `CCCCCCC1CCCc2c(n(Cc3ccc(C)cc3)c3c(C(=O)O)cccc23)C1` (centres unmarked) [7-hexyl-5-[(4-methylphenyl)methyl]-5H,6H,7H,8H,9H,10H-cyclohepta[b]indole-4-carboxylic acid]: the fold induction at 10 µM turned out to be 1.05.
The value for `CCCCCCC1CCCc2c(n(Cc3cccnc3)c3c(C(=O)O)cccc23)C1` (centres unmarked) [7-hexyl-5-[(pyridin-3-yl)methyl]-5H,6H,7H,8H,9H,10H-cyclohepta[b]indole-4-carboxylic acid] was 1.14; that for `CCCCCCC1CCc2c(n(Cc3ccccc3C#N)c3c(C(=O)O)cccc23)C1` (centres unmarked) [9-[(2-cyanophenyl)methyl]-2-hexyl-2,3,4,9-tetrahydro-1H-carbazole-8-carboxylic acid] was 1.13.
The value for `CCCCCCC1CCc2c(n(Cc3ccccc3F)c3c(C(=O)O)cccc23)C1` (centres unmarked) [9-[(2-fluorophenyl)methyl]-2-hexyl-2,3,4,9-tetrahydro-1H-carbazole-8-carboxylic acid] was 1.24; that for `CCCCCOC1CCCc2c1n(Cc1cccc(C(N)=O)c1)c1c(C(=O)O)cccc21` (centres unmarked) [9-[(3-carbamoylphenyl)methyl]-1-(pentyloxy)-2,3,4,9-tetrahydro-1H-carbazole-8-carboxylic acid] was 1.09; that for `CCC1CCCc2c1n(Cc1cccc(C(N)=O)c1)c1c(C(=O)O)cccc21` (centres unmarked) [9-[(3-carbamoylphenyl)methyl]-1-ethyl-2,3,4,9-tetrahydro-1H-carbazole-8-carboxylic acid] was 0.94.
The value for `CCCOC1CCCc2c1n(Cc1cccc(C(N)=O)c1)c1c(C(=O)O)cccc21` (centres unmarked) [9-[(3-carbamoylphenyl)methyl]-1-propoxy-2,3,4,9-tetrahydro-1H-carbazole-8-carboxylic acid] was 1.03.
Regarding `CCC1CCc2c(n(Cc3cccc(C(N)=O)c3)c3c(C(=O)O)cccc23)C1` (centres unmarked) [9-[(3-carbamoylphenyl)methyl]-2-ethyl-2,3,4,9-tetrahydro-1H-carbazole-8-carboxylic acid], the fold induction at 10 µM is 1.06.
The value for `CCCCCCC1CCc2c(n(Cc3cccc(C(N)=O)c3)c3c(C(=O)O)cccc23)C1` (centres unmarked) [9-[(3-carbamoylphenyl)methyl]-2-hexyl-2,3,4,9-tetrahydro-1H-carbazole-8-carboxylic acid] was 1.13; that for `CCCCCC1CCc2c(n(Cc3cccc(C(N)=O)c3)c3c(C(=O)O)cccc23)C1` (centres unmarked) [9-[(3-carbamoylphenyl)methyl]-2-pentyl-2,3,4,9-tetrahydro-1H-carbazole-8-carboxylic acid] was 1.13.
For `CCCC1CCc2c(n(Cc3cccc(C(N)=O)c3)c3c(C(=O)O)cccc23)C1` (centres unmarked) [9-[(3-carbamoylphenyl)methyl]-2-propyl-2,3,4,9-tetrahydro-1H-carbazole-8-carboxylic acid], the fold induction at 10 µM turned out to be 1.09.
The value for `CCC1CCc2c(c3cccc(C(=O)O)c3n2Cc2cccc(C(N)=O)c2)C1` (centres unmarked) [9-[(3-carbamoylphenyl)methyl]-3-ethyl-2,3,4,9-tetrahydro-1H-carbazole-8-carboxylic acid] was 1.1.
The value for `CCCCCC1CCc2c(c3cccc(C(=O)O)c3n2Cc2cccc(C(N)=O)c2)C1` (centres unmarked) [9-[(3-carbamoylphenyl)methyl]-3-pentyl-2,3,4,9-tetrahydro-1H-carbazole-8-carboxylic acid] was 1.08; that for `CCCC1CCc2c(c3cccc(C(=O)O)c3n2Cc2cccc(C(N)=O)c2)C1` (centres unmarked) [9-[(3-carbamoylphenyl)methyl]-3-propyl-2,3,4,9-tetrahydro-1H-carbazole-8-carboxylic acid] was 1.1.
The value for `CCC1CCCc2c1c1cccc(C(=O)O)c1n2Cc1cccc(C(N)=O)c1` (centres unmarked) [9-[(3-carbamoylphenyl)methyl]-4-ethyl-2,3,4,9-tetrahydro-1H-carbazole-8-carboxylic acid] was 1.21; that for `CCCCCC1CCCc2c1c1cccc(C(=O)O)c1n2Cc1cccc(C(N)=O)c1` (centres unmarked) [9-[(3-carbamoylphenyl)methyl]-4-pentyl-2,3,4,9-tetrahydro-1H-carbazole-8-carboxylic acid] was 1.12.
